The record followed here is patent US5753661A, “Fused benzo compounds containing a nitrogen heterocycle for the treatment of central nervous system disorders” (priority 1992, dated 1998).

The structures appear in SMILES notation. Read-outs that look alike come from different tables or passages of the source.

In assay [1] the target is T1, 5-HT1A receptor (Rattus norvegicus, UniProt P19327).
T1 sequence (P19327 1-422): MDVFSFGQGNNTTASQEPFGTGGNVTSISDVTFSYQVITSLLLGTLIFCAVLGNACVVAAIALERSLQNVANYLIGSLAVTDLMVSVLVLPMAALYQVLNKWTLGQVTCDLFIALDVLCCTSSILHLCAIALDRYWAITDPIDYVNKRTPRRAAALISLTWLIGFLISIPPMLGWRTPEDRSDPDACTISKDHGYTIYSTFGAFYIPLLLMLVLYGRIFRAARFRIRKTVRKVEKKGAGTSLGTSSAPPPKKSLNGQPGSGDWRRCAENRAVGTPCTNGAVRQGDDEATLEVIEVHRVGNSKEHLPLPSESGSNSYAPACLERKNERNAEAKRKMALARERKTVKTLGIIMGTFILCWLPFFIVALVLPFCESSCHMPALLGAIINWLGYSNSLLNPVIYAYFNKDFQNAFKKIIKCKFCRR
As to the kind of experiment: Generalization to the discriminative stimulus properties induced by 8-OH-DPAT in rats (8-OH-DPAT cue, agonism). Further details: from tissue; host or cells: living male Wistar rat (in vivo, endogenous receptor). Particulars: rat, sc; usually 30 or 45 min before test. Format: in vivo, rat (male Wistar). The text has this: Generalization to the Discriminative Stimulus Properties Induced by 8-OH-DPAT in Rats
This test is used to determine the 5-HT1A receptor agonistic effect of a test compound in vivo. A related method is described by Tricklebank, M. D., supra; Amt, J. Pharmacology & Toxicology, 1989, 64, 165.
The per cent drug responce obtained for each dose of test compound is used to calculate ED50 values by log-probit analysis.

Assay [2] addresses T1, 5-HT1A receptor. As to the kind of experiment: Inhibition of 3H-8-OH-DPAT binding to serotonin 5-HT1A receptors in rat brain in vitro. Further details: 5-HT1A receptors in membranes from rat brain minus cerebellum; from tissue; host or cells: rat brain minus cerebellum, membranes. The method, then: Inhibition of ^3 H-8-OH-DPAT Binding to Serotonin 5-HT1A Receptors in Rat Brain in vitro.
By this method the inhibition by drugs of the binding of the 5-HT1A agonist 3H-8-OH-DPAT (1 nM) to 5-HT1A receptors in membranes from rat brain minus cerebellum is determined in vitro . Accordingly, this is a test for affinity for the 5-HT1A receptor. The assay was performed as described by Hyttel et al., Drug Dev. Res. 1988, 15, 389-404.

For assay [3], the target named is T1, 5-HT1A receptor. In words: Inhibition of 5-MeO-DMT-induced 5-HT syndrome in rats. The settings on record: sc, 5-MeO-DMT 5 mg/kg s.c., inhibition of piano playing. Format: in vivo, rat (male Wistar). Further details: Male Wistar rats (Mol:Wist) weighing 170-240 g are used; from tissue; host or cells: living male Wistar rat (Mol:Wist) (in vivo, endogenous receptor). From the text: Inhibition of 5-MeO-DMT-Induced 5-HT Syndrome in Rats
The so-called 5-HT syndrome is a characteristic pattern of behaviours which are induced by 5-HT agonists with effects on 5-HT, possibly 5-HT1A receptors (Smith, L. M. and Peroutka, S. J., Pharmacol. Biochem. & Behaviour, 1986, 24, 1513; Tricklebank, M. et al, Eur. J. Pharmacol. 1985, 117, 15). This test is a test for determining the antagonist effects of a test compound on 5-HT1A receptors in vivo by measuring the ability to inhibit 5-MeO-DMT induced 5-HT syndrome.
Male Wistar rats (Mol:Wist) weighing 170-240 g are used. Test substance is injected s.c. before 5-MeO-DMT 5 mg/kg, s.c. Four rats are used for each dose. A control group pretreated with saline is included each test day. 10, 15 and 20 min later the rats are observed for presence of serotonin (5-HT) syndrome. The following symptoms are recorded: 1) forepaw treading ("piano playing"), 2) head weaving and 3) hindleg abduction. Furthermore, flat motility is scored. Each part of the syndrome is scored as follows: marked effect (score 2), weak syndrome (score 1) and no effect (score 0). The scores of the three observation periods are added. Thus the maximum obtainable score for four rats is 24. The effect of the test substance is expressed as percent inhibition relative to the control group.
The percent inhibition of the piano playing syndrome is used as the response and ED50 value are calculated by log-probit analysis.

[4] abbreviates: 3H-8-OH-DPAT 1 nM, membranes from rat brain minus cerebellum, read-out: IC50, 3H 8-OH-DPAT binding.

For `O=S(=O)(CCCN1CCN(c2cccc3c2OCCO3)CC1)c1ccccc1` [Compound 1b, 1-(1,4-Benzodioxan-5-yl)-4-(3-phenylsulfonyl-1-propyl)piperazine], the ED50 (in general, the dose that gives a 50% effect, or the effect in half of the subjects) in assay [1] was 0.099 µmol/kg; in assay [3], 9.5 µmol/kg. Moreover, the IC50 (in general, the concentration at which inhibition is half-maximal) in assay [2] (setting [4]) is 7.8 nM.
The matching figures for `O=S(=O)(CCCN1CCN(c2cccc3c2OCC3)CC1)C1CCCCC1` [Compound 1c, 1-(3-Cyclohexylsulfonyl-1-propyl)-4-(2,3-dihydrobenzofuran-7-yl)piperazine]: 0.069 µmol/kg, 12 µmol/kg and 2.6 nM.
With `O=S(=O)(CCCN1CCN(c2cccc3c2OCCO3)CC1)C12CC3CC(CC(C3)C1)C2` [Compound 1f, 1-[3-(1-Adamantyl)sulfonyl-1-propyl]-4-(1,4-benzodioxan-5-yl)piperazine], the ED50 in assay [1] was 0.052 µmol/kg; in assay [3], 0.47 µmol/kg. The IC50 in assay [2] (setting [4]) turned out to be 1.1 nM.
In the same order, the values of `CC1(C)Cc2cccc(N3CCN(CCCCN4CCN(C5CCCCC5)C4=O)CC3)c2O1` [Compound 2bb, 1-Cyclohexyl-3-[4-[4-(2,3-dihydro-2,2-dimethylbenzofuran-7-yl)-1-piperazinyl]-1-butyl]-2-imidazolidinone] are 0.036 µmol/kg, 0.78 µmol/kg and 0.92 nM.
Take `O=C1N(CCN2CCN(c3cccc4c3OCC4)CC2)CCN1C1CCCC1` [Compound 2f, 1-Cyclopentyl-3-[2-[4-(2,3-dihydrobenzofuran-7-yl)-1-piperazinyl]ethyl]-2-imidazolidinone]: the values for the ED50 in assay [1] and in assay [3] were 40 µmol/kg and 28 µmol/kg, respectively. The IC50 in assay [2] (setting [4]) is 54 nM.
Consider `O=C1N(CCN2CCN(c3cccc4ccoc34)CC2)CCN1c1ccccc1` [Compound 2m, 1-[2-[4-Benzofuran-7-yl-1-piperazinyl]ethyl]-3-phenyl-2-imidazolidinone], for which the ED50 in assay [1] was 2.3 µmol/kg. In assay [2] (setting [4]), the IC50 is 12 nM.
The matching figures for `CC1(C)Cc2cccc(N3CCN(CCN4CCN(c5ccccc5)C4=O)CC3)c2O1` [Compound 2n, 1-[2-[4-(2,3-Dihydro-2,2-dimethylbenzofuran-7-yl)-1-piperazinyl]ethyl]-3-phenyl-2-imidazolidinone]: 0.13 µmol/kg and 3.2 nM.
In the case of `CC1(C)Cc2cccc(N3CCN(CCN4CCN(C5CCCC5)C4=O)CC3)c2O1` [Compound 2p, 1-Cyclopentyl-3-[2-[4-(2,3-dihydro-2,2-dimethylbenzofuran-7-yl)-1-piperazinyl]ethyl]-2-imidazolidinone], the ED50 was 1.1 µmol/kg in assay [1] and 4.2 µmol/kg in assay [3]. Also, the IC50 in assay [2] (setting [4]) worked out at 3.7 nM.
The matching figures for `[O-][S+](CCCN1CCN(c2cccc3c2OCCO3)CC1)C1CCCCC1` (centres unmarked) [Compound 3a, 1-(1,4-Benzodioxan-5-yl)-4-(3-cyclohexylthio-1-propyl)piperazine S-oxide]: 0.02 µmol/kg, 5.2 µmol/kg and 1.8 nM.
Take `O=c1n(CCN2CCN(c3cccc4c3OCCO4)CC2)ccn1-c1ccc(F)cc1` [Compound 5a, 1-[3-[4-(1,4-Benzodioxan-5-yl)-1-piperazinyl]-1-ethyl]-1,3-dihydro-3-(4-fluorophenyl)-2-imidazolone]: the ED50 is 1.8 µmol/kg in assay [1] and 12 µmol/kg in assay [3]. Moreover, in assay [2] (setting [4]), the half-inhibitory concentration (IC50) stood at 11 nM.
As to `NC(=O)c1cc2c(N3CCN(CCN4CCN(C5CCCC5)C4=O)CC3)cccc2o1` [Compound 8a, 4-[4-[2-(3-Cyclopentyl-2-imidazolidinon-1-yl)ethyl]-1-piperazinyl]-2-benzofuranylcarboxamide], the IC50 in assay [2] (setting [4]) was determined as 3.9 nM.
The same measure, in the same setting: for `O=C1N(CCN2CCN(c3cccc4c3NCC4)CC2)CCN1C1CCCC1` [Compound 9a, 1-Cyclopentyl-3-[2-[4-(7-indolinyl)-1-piperazinyl]ethyl]-2-imidazolidinone] the value was 230 nM.
For `CC1(C)Cc2cccc(C3=CCN(CCCCN4CCN(C5CCCCC5)C4=O)CC3)c2O1` [Compound 10a, 1-Cyclohexyl-3-[4-[4-(2,3-dihydro-2,2-dimethylbenzofuran-7-yl)-1,2,3,6-tetrahydropyrid-1-yl]-1-butyl]-2-imidazolidinone], in assay [2], the IC50 stood at 1.2 nM.
With `CC1(C)Cc2cccc(C3CCN(CCCCN4CCN(C5CCCCC5)C4=O)CC3)c2O1` [Compound 11a, 1-Cyclohexyl-3-[4-[4-(2,3-dihydro-2,2-dimethylbenzofuran-7-yl)-1-piperidinyl]-1-butyl]-2-imidazolidinone], the 50% inhibitory concentration (IC50) in assay [2] (setting [4]) was 3.5 nM.
Still for that read-out and setting: the value for `O=c1n(CCN2CCN(c3cccc4c3OCCO4)CC2)c2ccccc2n1-c1ccc(F)cc1` [Compound 12a, 1-[2-[4-(1,4-Benzodioxan-5-yl)-1-piperazinyl]ethyl]-3-(4-fluorophenyl)-2(3H)-benzimidazolone] was 36 nM; that for `O=c1n(CCCCN2CCN(c3cccc4c3OCCO4)CC2)c2ccccc2n1-c1ccc(F)cc1` [Compound 13a, 1-[4-[4-(1,4-Benzodioxan-5-yl)-1-piperazinyl]-1-butyl]-3-(4-fluorophenyl)-2(3H)-benzimidazolone] was 22 nM.
Regarding `O=C1N(CCN2CCN(c3cccc4cc(-c5ccccc5)oc34)CC2)CCN1C1CCCC1` [Compound 14a, 1-Cyclopentyl-3-[2-[4-(2-phenylbenzofuran-7-yl)-1-piperazinyl]ethyl]-2-imidazolidinone], the IC50 in assay [2] (setting [4]) was found to be 9.7 nM.
With `CC1(C)COc2c(N3CCN(CCN4CCN(C5CCCC5)C4=O)CC3)cccc21` [Compound 14b], the IC50 in assay [2] (setting [4]) was 38 nM.
Take `CC1(C)COc2c(N3CCN(CCCCCCN4CCN(C5CCCC5)C4=O)CC3)cccc21` [Compound 14c]: the IC50 in assay [2] (setting [4]) stood at 7.5 nM.
With `CC1(C)Cc2c(cccc2N2CCN(CCCN3CCN(C4CCCCC4)C3=O)CC2)O1` [Compound 14d], the IC50 in assay [2] (setting [4]) is 22 nM.
